Experimental data as given in patent EP1194447B1, “NOVEL POTASSIUM CHANNELS AND GENES ENCODING THESE POTASSIUM CHANNELS” (NEUROSEARCH A/S, priority 1999, dated 2000).

Experiments:
KCNQ5 = molecular target: T1, KCNQ5 (Homo sapiens, UniProt Q9NR82); test: Two-electrode voltage clamp of KCNQ5 homomers expressed in Xenopus oocytes; format: cell-based; conditions: for IC50: extracellular application, Xenopus oocytes, from plotted fit curves (Fig. 5A), means ± SEM of 4 to 12 measurements, read-out: IC50, inhibition of KCNQ5 homomers; for effect on KCNQ5 currents: 10 µM, oocytes injected with KCNQ5 alone (no M1 receptor)
T1 construct: expressed in transfected cells; host or cells: Xenopus oocytes injected with cRNA transcribed from the KCNQ5-containing pTLN vector
Description: Two-electrode voltage-clamp current traces from a Xenopus oocyte injected with KCNQ5 cRNA. […] Starting from a holding potential of -80 mV cells were clamped for 2 seconds to voltages between -80 and +40 mV, in +10 mV steps, followed by a constant test pulse to -30 mV; • Figs. 4A-G show the electrophysiological properties of KCNQ5. Both the splice variant I (found in brain) and splice variant III (found in muscle) were expressed in Xenopus oocytes and examined by two-electrode voltage clamping. Both variants activate slowly upon depolarisation, but form I (4A) initially activates slower than the muscle form III (4B). Starting from a holding potential of -80 mV, the voltage was stepped for 0.8 seconds to values between -100 and + 40 mV in steps of 10 mV, followed by a voltage step to -30 mV (see inset, panel A). Channel activation by depolarization was fitted (for 2 sec. steps) by a sum of three exponential functions. For a step to +20 mV, the rate constants were ô1 = 37. 2 ± 2.2 ms, ô2 = 246 ± 17 ms, and ô3 = 1112 ± 91 ms for splice variant I, while these constants were ô1 = 24.5 ± 0.8 ms, ô2 = 163 ± 6 ms, and ô3 = 1690 ± 46 ms (± SEM, n=16). This difference in kinetics also results in different curves when a typical M-current protocol is used (4C, variant I; 4D, variant III). Variant I induces currents that kinetically resemble M-currents. In this protocol, the membrane voltage is clamped for 1 second to voltages between -30 and -90 mV in steps of -10 mV, from a holding potential of -30 mV. This was followed by a step to -30 mV (panel C, inset). (4E, 4F), apparent open probabilities of variants I (4E) and variant III (4F) as a function of voltage obtained from tail current analysis as described in Methods. Mean values obtained from 12 oocytes are shown. Fitting a Boltzmann equation yielded V½ = -46 ± 1 mV and an apparent gating charge of z = 2.8 ± 0.1 for isoform I, and V½ = -48 ± 1 mV and an apparent gating charge of z = 2.5 ± 0.1 for isoform III. For this fit, values at potentials more positive than +10 mV were excluded, as these are probably affected by a second (inactivation) gating process which leads to a decrease of apparent Popen at more positive potentials. (4G), ion selectivity of KCNQ5 currents (variant I). Extracellular sodium was replaced by equimolar amounts of potassium. The reversal potential is shown as a function of the potassium concentration. […] Data are from 10 oocytes from 2 different batches; • Figs. 5A-C show the pharmacology of KCNQ5 and KCNQ3/5 heteromers. (5A) Inhibition of KCNQ5 homomers by extracellular linopirdine (down triangles), XE991 (up triangles) and TEA (squares). […] (5B) Niflumic acid alters the voltage dependence of the apparent popen. In the presence of 500 µM niflumic acid (open circles), the voltage dependence is shifted about 20 mV towards negative potentials. (5C) TEA sensitivity is altered in KCNQ3/5 heteromers. Coexpression of KCNQ5 and KCNQ3 (1:1) (diamonds) increased the IC50 value to 200 mM, coexpression with the KCNQ3 (T323Y) mutant (circles) decreased the IC50 to ~ 30 mM. […] The pulse protocol is shown in the inset of panel b. No effect of 10 µM muscarine or oxotremorine methiodide was found in oocytes injected with KCNQ5 alone; and • Figs. 7A-C show the interactions between KCNQ2 and KCNQ5 (7A, 7B) and KCNQ3 and KCNQ5 (7C): • (7A) currents at the end of a two second pulse to 0 mV from a holding potential of -80 mV of oocytes injected with different combinations of KCNQ cRNAs (always 10 ng total amount of RNA). The current amplitude elicited by co-injecting KCNQ2 and KCNQ5 could be explained by a linear superposition of currents. Co-injection of KCNQ5 with the dominant negative mutant KCNQ2(G279S) or of KCNQ2 with the equivalent mutant KCNQ5(G278S) lead to a roughly 50% reduction in current amplitude, which is consistent with a lack of interaction since only 50% of WT cRNA was injected; • (7B) normalized current traces of experiments used for panel (A). […]

KCNQ2/KCNQ3 channels = KCNQ2/KCNQ3 channels (Homo sapiens, UniProt O43525+O43526); conditions: 200 µM; cited from earlier work
[1] = molecular target: T2, KCNQ5 coexpressed with KCNQ3 (T323Y) mutant (Homo sapiens, UniProt O43525+Q9NR82, T323Y); test: Two-electrode voltage clamp of KCNQ5 coexpressed with the KCNQ3 (T323Y) mutant in Xenopus oocytes; format: cell-based; conditions: coexpression of KCNQ5 with the KCNQ3 (T323Y) mutant; Fig. 5C; read-out: IC50 (TEA sensitivity)
T2 construct: expressed in transfected cells; host or cells: Xenopus oocytes co-injected with cRNAs
Description: Two-electrode voltage-clamp current traces from a Xenopus oocyte injected with KCNQ5 cRNA. […] Starting from a holding potential of -80 mV cells were clamped for 2 seconds to voltages between -80 and +40 mV, in +10 mV steps, followed by a constant test pulse to -30 mV; • Figs. 4A-G show the electrophysiological properties of KCNQ5. Both the splice variant I (found in brain) and splice variant III (found in muscle) were expressed in Xenopus oocytes and examined by two-electrode voltage clamping. Both variants activate slowly upon depolarisation, but form I (4A) initially activates slower than the muscle form III (4B). Starting from a holding potential of -80 mV, the voltage was stepped for 0.8 seconds to values between -100 and + 40 mV in steps of 10 mV, followed by a voltage step to -30 mV (see inset, panel A). Channel activation by depolarization was fitted (for 2 sec. steps) by a sum of three exponential functions. For a step to +20 mV, the rate constants were ô1 = 37. 2 ± 2.2 ms, ô2 = 246 ± 17 ms, and ô3 = 1112 ± 91 ms for splice variant I, while these constants were ô1 = 24.5 ± 0.8 ms, ô2 = 163 ± 6 ms, and ô3 = 1690 ± 46 ms (± SEM, n=16). This difference in kinetics also results in different curves when a typical M-current protocol is used (4C, variant I; 4D, variant III). Variant I induces currents that kinetically resemble M-currents. […]

[2] = test system: KCNQ5 co-expressed with M1 receptors; test: KCNQ5 currents in Xenopus oocytes co-expressing M1 receptors (two-electrode voltage clamp); format: cell-based, human; conditions: 10 µM muscarine, 3 minutes after applying; Fig. 6
Description: Two-electrode voltage-clamp current traces from a Xenopus oocyte injected with KCNQ5 cRNA. […] Starting from a holding potential of -80 mV cells were clamped for 2 seconds to voltages between -80 and +40 mV, in +10 mV steps, followed by a constant test pulse to -30 mV; • Figs. 4A-G show the electrophysiological properties of KCNQ5. […] Starting from a holding potential of -80 mV, the voltage was stepped for 0.8 seconds to values between -100 and + 40 mV in steps of 10 mV, followed by a voltage step to -30 mV (see inset, panel A). Channel activation by depolarization was fitted (for 2 sec. steps) by a sum of three exponential functions. For a step to +20 mV, the rate constants were ô1 = 37. […] In this protocol, the membrane voltage is clamped for 1 second to voltages between -30 and -90 mV in steps of -10 mV, from a holding potential of -30 mV. This was followed by a step to -30 mV (panel C, inset). (4E, 4F), apparent open probabilities of variants I (4E) and variant III (4F) as a function of voltage obtained from tail current analysis as described in Methods. Mean values obtained from 12 oocytes are shown. […] For this fit, values at potentials more positive than +10 mV were excluded, as these are probably affected by a second (inactivation) gating process which leads to a decrease of apparent Popen at more positive potentials. (4G), ion selectivity of KCNQ5 currents (variant I). […]

T1 sequence (Q9NR82 36-932 limits assumed): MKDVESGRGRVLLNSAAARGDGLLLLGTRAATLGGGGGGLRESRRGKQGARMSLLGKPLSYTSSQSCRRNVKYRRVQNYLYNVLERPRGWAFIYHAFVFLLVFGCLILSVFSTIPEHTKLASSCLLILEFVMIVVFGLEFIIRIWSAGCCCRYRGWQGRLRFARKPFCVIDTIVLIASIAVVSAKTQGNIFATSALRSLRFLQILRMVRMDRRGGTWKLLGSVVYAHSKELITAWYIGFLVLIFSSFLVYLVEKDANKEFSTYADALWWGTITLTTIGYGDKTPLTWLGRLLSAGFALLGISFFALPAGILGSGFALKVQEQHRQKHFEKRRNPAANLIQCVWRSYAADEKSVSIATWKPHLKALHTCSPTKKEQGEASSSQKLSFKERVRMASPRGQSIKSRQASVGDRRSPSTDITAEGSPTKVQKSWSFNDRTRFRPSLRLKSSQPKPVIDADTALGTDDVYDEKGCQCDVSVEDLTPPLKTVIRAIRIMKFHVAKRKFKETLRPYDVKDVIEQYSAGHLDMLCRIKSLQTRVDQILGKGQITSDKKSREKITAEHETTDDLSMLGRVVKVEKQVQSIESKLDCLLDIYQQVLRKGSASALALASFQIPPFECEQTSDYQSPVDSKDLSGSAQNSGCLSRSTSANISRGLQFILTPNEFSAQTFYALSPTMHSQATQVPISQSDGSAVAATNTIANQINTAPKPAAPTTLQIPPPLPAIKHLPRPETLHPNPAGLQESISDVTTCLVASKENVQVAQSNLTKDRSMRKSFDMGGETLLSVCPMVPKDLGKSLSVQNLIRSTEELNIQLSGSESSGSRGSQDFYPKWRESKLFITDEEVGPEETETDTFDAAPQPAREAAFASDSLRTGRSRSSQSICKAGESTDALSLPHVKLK
T2 sequence (Q9NR82 36-932 limits assumed): as above
T2 sequence (O43525 whole entry T323Y): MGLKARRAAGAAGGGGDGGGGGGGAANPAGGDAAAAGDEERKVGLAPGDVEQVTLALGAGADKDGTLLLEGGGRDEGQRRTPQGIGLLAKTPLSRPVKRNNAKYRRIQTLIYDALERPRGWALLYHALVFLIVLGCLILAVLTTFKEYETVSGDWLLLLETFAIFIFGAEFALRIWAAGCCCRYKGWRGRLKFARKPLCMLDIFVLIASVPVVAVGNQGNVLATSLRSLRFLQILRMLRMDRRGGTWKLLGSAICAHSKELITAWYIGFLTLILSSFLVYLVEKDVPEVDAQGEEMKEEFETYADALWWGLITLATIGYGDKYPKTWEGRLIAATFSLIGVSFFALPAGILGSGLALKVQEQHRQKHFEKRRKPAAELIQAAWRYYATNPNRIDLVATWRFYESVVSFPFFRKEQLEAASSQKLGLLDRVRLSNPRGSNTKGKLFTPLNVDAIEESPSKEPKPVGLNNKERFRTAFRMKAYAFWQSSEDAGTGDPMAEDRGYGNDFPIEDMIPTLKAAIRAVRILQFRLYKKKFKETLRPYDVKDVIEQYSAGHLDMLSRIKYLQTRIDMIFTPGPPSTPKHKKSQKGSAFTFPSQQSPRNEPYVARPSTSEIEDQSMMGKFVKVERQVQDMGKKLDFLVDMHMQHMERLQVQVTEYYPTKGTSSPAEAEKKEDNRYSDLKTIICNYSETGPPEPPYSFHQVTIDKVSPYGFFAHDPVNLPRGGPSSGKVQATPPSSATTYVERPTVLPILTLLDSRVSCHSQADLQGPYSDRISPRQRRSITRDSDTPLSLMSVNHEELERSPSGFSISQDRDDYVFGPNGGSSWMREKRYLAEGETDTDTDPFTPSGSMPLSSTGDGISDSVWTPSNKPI
Sequence of KCNQ2/KCNQ3 channels (O43526 whole entry): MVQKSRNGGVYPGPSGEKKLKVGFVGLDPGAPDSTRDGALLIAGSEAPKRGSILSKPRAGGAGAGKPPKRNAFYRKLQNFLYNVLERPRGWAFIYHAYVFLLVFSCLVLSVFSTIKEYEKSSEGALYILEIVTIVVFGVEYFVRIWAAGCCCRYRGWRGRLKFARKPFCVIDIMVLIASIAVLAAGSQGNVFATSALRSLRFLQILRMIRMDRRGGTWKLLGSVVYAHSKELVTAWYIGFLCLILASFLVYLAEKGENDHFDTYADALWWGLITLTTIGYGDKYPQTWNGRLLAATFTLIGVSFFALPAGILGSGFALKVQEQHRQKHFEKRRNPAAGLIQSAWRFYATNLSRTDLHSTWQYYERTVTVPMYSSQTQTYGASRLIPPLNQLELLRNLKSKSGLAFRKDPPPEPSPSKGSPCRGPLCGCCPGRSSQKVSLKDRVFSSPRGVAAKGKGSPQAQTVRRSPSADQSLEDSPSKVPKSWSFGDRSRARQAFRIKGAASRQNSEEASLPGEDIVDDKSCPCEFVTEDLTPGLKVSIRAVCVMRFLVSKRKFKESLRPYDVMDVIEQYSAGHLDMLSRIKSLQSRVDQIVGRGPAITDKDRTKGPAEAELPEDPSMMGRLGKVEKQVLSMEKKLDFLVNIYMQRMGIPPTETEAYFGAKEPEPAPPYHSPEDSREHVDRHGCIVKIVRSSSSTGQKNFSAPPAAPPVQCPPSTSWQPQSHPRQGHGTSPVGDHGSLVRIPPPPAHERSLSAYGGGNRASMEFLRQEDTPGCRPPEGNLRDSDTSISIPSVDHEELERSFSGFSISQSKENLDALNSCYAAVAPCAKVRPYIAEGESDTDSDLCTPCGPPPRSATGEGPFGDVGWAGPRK
Sequence of KCNQ2/KCNQ3 channels (O43525 whole entry): as the sequence (O43525 whole entry T323Y) above, with Y323T counted along it

[Ba+2] [Ba^++]
inhibition of KCNQ5 currents (KCNQ5; 5 mM Ba++): more than 80%

O=C1N(c2ccccc2)c2ccccc2C1(Cc1ccncc1)Cc1ccncc1 [Linopirdine, 1,3-dihydro-1-phenyl-3,3-bis-(4-pyridylmethyl)-2H-indol-2-one]
inhibition at 200 µM (KCNQ5; 200 µM Linopirdine in ND98): ~80% | IC50 (KCNQ5): 0.051 ± 0.005 mM | inhibition of KCNQ2/KCNQ3 channels (KCNQ2/KCNQ3 channels): nearly completely inhibits

O=C(O)c1cccnc1Nc1cccc(C(F)(F)F)c1 [Niflumic acid]
shift of the voltage dependence of the apparent popen towards negative potentials (KCNQ5; 500 µM niflumic acid, Fig. 5B): about 20 mV

CC[N+](CC)(CC)CC [TEA]
IC50 (KCNQ5): 71 ± 17 mM | IC50 [1]: ~30 mM

C[C@@H]1O[C@H](C[N+](C)(C)C)C[C@H]1O [muscarine]
effect on KCNQ5 currents (KCNQ5): No effect | effect on KCNQ5 currents by stimulating co-expressed M1 receptors [2]: inhibition of KCNQ5 currents

C[N+](C)(C)CC#CCN1CCCC1=O [oxotremorine methiodide]
effect on KCNQ5 currents (KCNQ5): No effect
